The values below come from article PMC4201456, “Cytoxicity and Apoptotic Mechanism of Ruthenium(II) Amino Acid Complexes in Sarcoma-180 Tumor Cells” (PLoS ONE, 2014).

One experiment deals with L929 normal cells. Kind of experiment: MTT cell viability assay, L929 normal cells. In kind it is cell-based, murine. The note with it: L929 normal cell line, 48 h. As to the method:
(§1) The murine sarcoma-180 tumor cells (S180) (ATCC# TIB-66) and normal murine fibroblast cells (L-929) (ATCC# CCL-1) were cultured in suspension in RPMI 1640 and DMEM media (Sigma Chemical Co., MO), respectively, supplemented with 10% fetal calf serum, 100 µg/mL penicillin, and 100 µg/mL streptomycin. The cultures were incubated in a humidified incubator (Thermo Scientific) at 37°C with 5% CO2.
(§2) The cytotoxic effects of the amino acid ruthenium complexes were evaluated using an MTT assay with S180 tumor cells and L929 normal cells as described previously. Briefly, 1.0×10^5 S180 cells and 2.0×10^4 L929 cells were plated in 96-well tissue culture plates and treated with different concentrations of amino acid ruthenium complexes (0.2–200 µM) for 48 h. After treatment, 10 µL of MTT (5 mg mL^−1) was added to each well, and the plates were incubated at 37°C for an additional 3 h. The purple formazan crystals were dissolved in 50 µL of SDS, and the absorbance was determined at 545 nm using a Stat Fax 2100 microplate reader (Awareness Technology, Palm City, FL, USA). The cell viability was calculated as follows: viability (%) = (absorbance of the treated wells)/(absorbance of the control wells) ×100. The IC50 (complex concentration (µM) that results in a 50% reduction in cellular viability) was obtained from dose-response curves using GraphPad Prism 4.02 for Windows (GraphPad Software, San Diego, CA, USA).

In another experiment the test system is S180 tumor cells. In words: MTT cell viability assay, S180 tumor cells. In kind it is cell-based, murine. The note with it: S180 tumor cell line, 48 h. As to the method: as §1, §2
A general note: Tetrazolium dyes change colour on reduction, which living cells bring about.

The next experiment has as its system pBR322 plasmid DNA. Further details: method as in PMID 21875763. The settings on record: previous study; cited from earlier work.
The next experiment deals with S180 cells. Also on record: method as in earlier work. The note with it: previous studies; cited from earlier work.

The structures appear in SMILES notation.

The term IC50 denotes the concentration that gives 50% inhibition. A low value points to inhibition by little substance. On to `N.N.[Cl][Pt][Cl]` [Cisplatin, cisplatin, reference compound], for which the IC50 in the experiment on L929 normal cells was 29.1 ± 1.88 µM; with S180 tumor cells, 64.83 ± 0.17 µM.
The corresponding values for `CSCC[C@H](N)C(=O)[O-].F[P-](F)(F)(F)(F)F.[Ru+2].c1ccc(-c2ccccn2)nc1.c1ccc(P(CCCCP(c2ccccc2)c2ccccc2)c2ccccc2)cc1` [Complex 1, [Ru(met)(bipy)(dppb)]PF6] are 27.4 ± 3.32 µM and 22.5 ± 3.4 µM.
Take `CC(C)C[C@H](N)C(=O)[O-].F[P-](F)(F)(F)(F)F.[Ru+2].c1ccc(-c2ccccn2)nc1.c1ccc(P(CCCCP(c2ccccc2)c2ccccc2)c2ccccc2)cc1` [Complex 3, [Ru(leu)(bipy)(dppb)]PF6]: the values for the IC50 in the experiment with L929 normal cells and in the experiment with S180 tumor cells were 47.1 ± 5.94 µM and 38.2 ± 7 µM, respectively.
With `F[P-](F)(F)(F)(F)F.F[P-](F)(F)(F)(F)F.N[C@@H](CC(=O)O)C(=O)O.[Ru+2].c1ccc(-c2ccccn2)nc1.c1ccc(P(CCCCP(c2ccccc2)c2ccccc2)c2ccccc2)cc1` [Complex 4, [Ru(aspac)(bipy)(dppb)](PF6)2], the values for the half-maximal inhibitory concentration (IC50) in the experiment with L929 normal cells and with S180 tumor cells were 107 ± 8.98 µM and 42.2 ± 3.98 µM, respectively.
The matching figures for `C[C@H](N)C(=O)[O-].F[P-](F)(F)(F)(F)F.[Ru+2].c1ccc(-c2ccccn2)nc1.c1ccc(P(CCCCP(c2ccccc2)c2ccccc2)c2ccccc2)cc1` [Complex 5, [Ru(ala)(bipy)(dppb)]PF6]: 97.8 ± 8.99 µM and 50.2 ± 1.03 µM.
With `F[P-](F)(F)(F)(F)F.O=C1[O][Ru-4]23([n+]4ccccc41)([n+]1ccccc1-c1cccc[n+]12)[P+](c1ccccc1)(c1ccccc1)CCCC[P+]3(c1ccccc1)c1ccccc1` [[Ru(pic)(dppb(bipy)]PF6], the “effect on plasmid DNA (AFM images)” value in the experiment with pBR322 plasmid DNA is “strong aggregation of plasmid DNA”.
Turning to `N.N.N.N.[Cl-].[Cl][Ru+][Cl]` [cis-[RuCl2(NH3)4]Cl], in the experiment on S180 cells, the “numbers of Annexin V-positive S180 cells” value was “increased the numbers of Annexin V-positive S180 cells”.
